Data as given in patent US20020173036A1, “Cell line and method of making and using same” (priority 2001, published 2002).

Key:
[1] = target: T1, PKC-α (Homo sapiens, UniProt P17252); assay: PKC-α immunostaining (subcellular localization); format: cell-based; conditions: 1 μM, 90 min at 37° C.
T1 construct: Cytosolic and particulate fractions were prepared from CAC-1 cells and 30 μg of protein/lane was applied to SDS/PAGE and PKC-α detected by immunoblotting; endogenous in cells
Protocol: (§1) Cells were treated as described for the growth culve for 90 min at 37° C. Prior to MARCKS staining some cells were treated with 14 nM bisindolylmaleimide (Calbiochem, La Jolla, Calif.) for 90 min at 37° C. in order to down-regulate PKC isoforms. Cells were immunostained for PKC-α using an immunofluorescent assay kit and instructions from Research and Diagnostics (Berkley, Calif.) as described previously by Carter, et al., 1998. For MARCKS staining, cells were fixed and permeabilized as described for F-actin visualization and exposed to an anti-MARCKS mouse monoclonal IgG antibody (Upstate Biotechnology, Lake Placid, N.Y.) diluted 1:400 in 1% Bovine Serum Albumin and 0.5% nonfat dry milk (Carnation) in PBS for 1 hr at 37° C. […] Cells were rinsed, mounted and observed as described for actin staining.

[2] = system: CAC-1 cells; assay: Cell detachment assay; format: cell-based, human; conditions: 1 μM, 24 hrs at 37° C.
Protocol: CAC-1 cells were plated onto 35 mm plastic tissue culture dishes at 100,000 cells per dish and allowed to attach for 7 days. For analysis of the retinoic acid effects on cell attachment, cell detachment assays were performed using the methods of Guo, et al., 1995. Cells were exposed to media alone (controls), 1 μM 13-cis retinoic acid, […] retinoic acid or corresponding doses of ethanol alone in culture media alone (vehicle control) for 24 hrs at 37° C. prior to cell counting. The assays were performed in duplicate. Cells were rinsed twice with sterile HBSS and exposed to 0.5% trypsin/EDTA (Gibco, BRL) for 10 min with constant agitation on a rocker set at 120 rpm's. The media containing the detached cells was collected. Detached cells from each dish were counted using a hemacytometer and the mean calculated and graphed using Cricket Graph. Statistics were performed using StatMost, (DataMost Corporation, Sandy, Utah). Statistical analysis was performed using one way analysis of variance-(ANOVA).

[3] = system: MARCKS; assay: MARCKS immunostaining (subcellular localization); format: cell-based, human; conditions: 90 min at 37° C.
Protocol: as §1

[4] = system: CAC-1 cells; assay: Retinoic acid treatment and F-actin staining with cell size measurement; conditions: 1 μM, 90 min at 37° C.; for mean cell size relative to cells only exposed to media or ethanol: 25 cells per group; for cell enlargement and actin filament reorganization (F-actin staining): CAC-1 cells at passage 12
[5] = target: T1, PKC-α; assay: PKC-α Western blot of cytosolic and particulate fractions; format: cell-based; conditions: CAC-1 cells; for amount of PKC-α in the cytosolic fraction / amount of PKC-α in the particulate fraction: 1 μM, 90 min
Protocol: Confluent 100 mm dishes of CAC-1 cells in the exponential phase of growth (70-80% maximum density) were treated for 90 min with media alone or 1 μM doses of all-trans or 13-cis retinoic acid, corresponding amounts of ethanol (vehcile control) or with TPA for 20 min to activate PKC-α. Cytosolic and particulate fractions of cells were isolated as described previously (Carter, et al., 1998) and changes in PKC-α were analyzed by Western blot analysis using methods described previously and a primary antibody from Transduction Laboratories (Carter, et al., 1998).

[6] = system: hematopoietic cells; conditions: cited from earlier work

| amount of PKC-α in the cytosolic fraction [5] | amount of PKC-α in the particulate fraction [5] | Compound | PKC-α localization [1] | decrease in cell detachment compared to controls [2] | MARCKS localization ([3]; 1 μM) | mean cell size relative to cells only exposed to media or ethanol [4] | cell enlargement and actin filament reorganization (F-actin staining) [4] | decrease in mean F-actin content [6] [%] | PKC-α distribution between cytosolic and particulate fractions ([5]; 100 nM TPA for 20 min) | MARCKS localization ([3]; 14 nM) |
| --- | --- | --- | --- | --- | --- | --- | --- | --- | --- | --- |
| slight increase | decrease | CC1=C(/C=C/C(C)=C/C=C/C(C)=C\C(=O)O)C(C)(C)CCC1 [13-cis retinoic acid] | localize exclusively to the cytoplasm occurring predominantly in perinuclear regions | around 40% | MARCKS localized to the plasma membrane | twice the size | cells enlarged and actin filaments were apparent | – | – | – |
| – | – | CCCCCCCCCCCCCC(=O)O[C@@H]1[C@@H](C)[C@@]2(O)[C@@H](C=C(CO)C[C@]3(O)C(=O)C(C)=C[C@@H]23)[C@@H]2C(C)(C)[C@]12OC(C)=O [TPA, 12-O-tetradecanoylphorbol-13-acetate] | – | – | – | – | – | 32 | most of the PKC-α was present in the particulate fraction | – |
| slight increase | decrease | CC1=C(/C=C/C(C)=C/C=C/C(C)=C/C(=O)O)C(C)(C)CCC1 [all-trans retinoic acid] | localize exclusively to the cytoplasm occurring predominantly in perinuclear regions | around 40% | MARCKS localized to the plasma membrane | twice the size | cells also enlarged and actin filaments were prominent throughout the cells | – | – | – |
| – | – | bisindolylmaleimide | – | – | – | – | – | – | – | MARCKS staining was prominent in the plasma membrane |
